US10336731B2, “Substituted 1H-indole-2-carboxamide compounds as indoleamine-2,3-dioxygenase inhibitors” (Merck Sharp & Dohme Corp., priority 2015, dated 2019)
pIC50: −log10 of the molar value.

Molecular target: hIDO1 (Homo sapiens (Human), UniProt P14902)
Assay: IDO1 cellular assay in HEK293 cells transiently expressing hIDO1
Assay type: cell-based
Conditions: HEK293 cell line transiently expressing hIDO1, n=1
Description: Compounds to be tested were serially diluted in ten 3-fold steps in DMSO starting from 10 mM DMSO stocks. Compound dilutions or DMSO alone were then dispensed from the dilution plate into a Greiner black 384-well assay plate (catalog #781086) using an Echo 550 acoustic liquid handler (Labcyte).
HEK293 cell pellets were resuspended to 5×10^5 cells/mL in complete HEK293 culture media (89% DMEM, 10% FBS, 1% penicillin/streptomycin). Suspended cells (2 mL) were dispensed into each well of a 6-well Corning plate (Catalog#3516). Cells were allowed to attach and were incubated for 20 hours at 37 degrees Celsius in a 5% CO2 incubator. […]
Media was removed from the cells which were then washed with 2 mL Dulbecco's phosphate-buffered saline (DPBS). […] Plates were incubated at 37 degrees in a 5% CO2 incubator overnight to develop fluorescence. […] The resulting fluorescence was measured in an Envision plate reader (Perkin Elmer) with a 400/25 nm excitation filter and an 510/20 nm emission filter.
The fluorescence intensity of each well was corrected for the background observed in wells with untransfected cells and was expressed as a fraction of the intensity observed in wells of IDO1 transfected cells and DMSO only. Potencies were calculated by […] to the four parameter logistic IC50 equation.

Sequence of hIDO1 (P14902 whole entry): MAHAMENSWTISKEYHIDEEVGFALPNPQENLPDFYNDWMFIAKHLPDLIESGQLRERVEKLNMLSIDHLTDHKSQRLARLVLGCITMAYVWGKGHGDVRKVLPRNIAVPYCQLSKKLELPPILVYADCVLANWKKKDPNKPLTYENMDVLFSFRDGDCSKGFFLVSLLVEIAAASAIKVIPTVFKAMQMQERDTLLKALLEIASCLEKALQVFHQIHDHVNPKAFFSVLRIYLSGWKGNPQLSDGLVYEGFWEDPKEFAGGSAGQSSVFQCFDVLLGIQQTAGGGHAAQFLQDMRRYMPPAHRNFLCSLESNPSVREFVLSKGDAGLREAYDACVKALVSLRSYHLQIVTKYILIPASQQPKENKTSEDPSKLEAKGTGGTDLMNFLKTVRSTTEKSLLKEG

pIC50 | SMILES
6.69 | C[C@@H]1C[C@]1(NC(=O)c1cc2cc(C#N)ccc2[nH]1)c1cnn(C)c1 (stereo in doubt) [Compound 12, 5-cyano-N-((1R,2R)-2-methyl-1-(1-methyl-1H-pyrazol-4-yl)cyclopropyl)-1H-indole-2-carboxamide]

Molecular target: human IDO protein (Homo sapiens (Human), UniProt P14902)
Sequence (P14902 whole entry): as above
Assay: IDO biochemical coupled assay (formamidase, Ehrlich's reagent)
Conditions: 0.17 μM human IDO, 120 min pre-incubation, 45 μM L-Trp; read-out: hIDO biochemical assay pIC50 (converted)
Text: (§1) For REF1-REF3 and Compounds 1-11, two different types of assay were employed: 1. An IDO biochemical coupled assay which utilised recombinantly produced and purified IDO enzyme in combination with the enzyme formamidase. This coupled enzyme system allowed conversion of N-formylkynurenine produced by IDO activity to kynurenine which was then quantified by fluorescence following addition of Erhlich's Reagent. 2. A cell-based assay for detecting the effect of test compounds on kynurenine production in cancer cells. This assay utilised cancer cells which expressed IDO and as such was used as a means of testing compound activity at the enzyme in a cell-based context. The protocols for these are set out below.
0.17 μM of human IDO protein was pre-incubated for 120 min at RT with test compounds in the presence of 50 mM KPO4, pH 7.0, 0.5 mM EDTA, 0.5 mM EGTA, 0.05% Triton X-100, 20 mM ascorbate, 500 U/ml catalase, 10 μM methylene blue at RT in a 384 well plate. 0.05 μg/μl kynurenine formamidase and 45 μM L-tryptophan (L-Trp) were added and the assays were incubated at RT for 40 min. Assays were stopped and the level of kynurenine was determined by incubation with Ehrlich's reagent to a final concentration of 1.33% at RT for 5 min. Fluorescence intensity was read at 475 nm/530 nm.

IC50 [nM] | SMILES
398 | C[C@H]1C[C@@]1(NC(=O)c1cc2cc(Br)ccc2[nH]1)c1cnn(C)c1 (racemic) [Compound 2, racemic]

Molecular target: IDO (SKOV-3 cells) (Homo sapiens (Human), UniProt P14902)
Sequence (P14902 whole entry): as above
Assay: IDO cell-based assay (kynurenine production in IFNγ-induced SKOV-3 cells)
Conditions: IFNγ 500 ng/ml, 500 μM L-Trp, 48 h, read-out: pIC50, IDO cellular assay (SKOV3) (converted)
Text: as §1
SKOV-3 ovary adenocarcinoma (ATCC) cells were grown in McCoys 5A+L-glutamax medium supplemented with 15% foetal bovine serum. On the day of assay, cells were detached using trypsin-EDTA (0.25% v/v), re-suspended in assay media (RPMI 1640 phenol red free+L-glutamine supplemented with 10% dialysed foetal bovine serum). SKOV-3 cells were seeded at 40K cells per well into 96-well plates containing test samples/vehicle control together with 500 μM L-Trp. Cells were then incubated for 48 h at 37° C. 5% CO2. IFNγ was also added at 500 ng/ml for the 48 h incubation in order to induce expression of IDO. Plates were centrifuged and the supernatant was removed and incubated for 5 min in the presence of 1% Erhlich's reagent. Kynurenine levels were then quantified by measuring absorbance at 490 nm.

IC50 [nM] | SMILES
31.6 | C[C@H]1C[C@@]1(NC(=O)c1cc2cc(Br)ccc2[nH]1)c1cnn(C)c1 (racemic) [Compound 2, racemic]
77.6 | C[C@H]1C[C@@]1(NC(=O)c1cc2cc(C#N)ccc2[nH]1)c1cnn(-c2ccccc2)c1 (single isomer, unassigned) [Compound 9, enantiomer 1]
43.7 | C[C@H]1C[C@@]1(NC(=O)c1cc2cc(C#N)ccc2[nH]1)c1cnn(-c2ccccc2)c1 (single isomer, unassigned) [Compound 9, enantiomer 2]
34.7 | C[C@H]1C[C@@]1(NC(=O)c1cc2cc(Cl)ccc2[nH]1)c1cnn(-c2ccc(Cl)cc2)c1 (single isomer, unassigned) [Compound 10, enantiomer 1]
11.7 | C[C@H]1C[C@@]1(NC(=O)c1cc2cc(Cl)ccc2[nH]1)c1cnn(-c2ccc(Cl)cc2)c1 (single isomer, unassigned) [Compound 10, enantiomer 2]
28.2 | C[C@H]1C[C@@]1(NC(=O)c1cc2cc(Cl)ccc2[nH]1)c1cnn(-c2ccc(F)cc2)c1 (single isomer, unassigned) [Compound 11, enantiomer 1]
10 | C[C@H]1C[C@@]1(NC(=O)c1cc2cc(Cl)ccc2[nH]1)c1cnn(-c2ccc(F)cc2)c1 (single isomer, unassigned) [Compound 11, enantiomer 2]
89.1 | CCc1nn(C)cc1C1(NC(=O)c2cc3cc(Cl)ccc3[nH]2)CC1 [Compound 3]
87.1 | CC(C)c1nn(C)cc1C1(NC(=O)c2cc3cc(Cl)ccc3[nH]2)CC1 [Compound 4]
91.2 | O=C(NC1(c2cnn(-c3ccccc3)c2)CC1)c1cc2cc(Cl)ccc2[nH]1 [Compound 5]
83.2 | Cn1cc(C2(NC(=O)c3cc4cc(Br)cc(F)c4[nH]3)CC2)cn1 [Compound 6]
126 | Cn1cc(C2(NC(=O)c3cc4cc(Cl)ccc4[nH]3)CC2)cn1 [REF 1, reference compound]
186 | CCn1cc(C2(NC(=O)c3cc4cc(Cl)ccc4[nH]3)CC2)cn1 [REF 2, reference compound]
182 | Cn1cc(C2(NC(=O)c3cc4cc(Br)ccc4[nH]3)CC2)cn1 [REF 3, reference compound]
